# Like-named read-outs stand apart in the source and are kept apart here.
# Legend:
# [1] = molecular target: T1, HCV NS5B (Hepatitis C virus genotype 1b, UniProt Q9WMX2); assay: HCV NS5B RdRp enzyme assay (standard or modified); assay type: biochemical
# T1 construct: The protein was expressed with an 18 amino acid C-terminal truncation to enhance the solubility; made in house; host or cells: E. coli BL21(DE3)
# Description: HCV NS5B RdRp cloning, expression, and purification. The cDNA encoding the NS5B protein of HCV, genotype 1b, was cloned into the pET21a expression vector. The protein was expressed with an 18 amino acid C-terminal truncation to enhance the solubility. The E. coli competent cell line BL21(DE3) was used for expression of the protein. Cultures were grown at 37° C. for ˜4 hours until the cultures reached an optical density of 2.0 at 600 nm. The cultures were cooled to 20° C. and induced with 1 mM IPTG. Fresh ampicillin was added to a final concentration of 50 μg/ml and the cells were grown overnight at 20° C.
# Cell pellets (3 L) were lysed for purification to yield 15-24 mgs of purified NS5B. The lysis buffer consisted of 20 mM Tris-HCl, pH 7.4, 500 mM NaCl, 0.5% triton X-100, 1 mM DTT, 1mM EDTA, 20% glycerol, 0.5 mg/ml lysozyme, 10 mM MgCl2, 15 ug/ml deoxyribonuclease I, and Complete TM protease inhibitor tablets (Roche). After addition of the lysis buffer, frozen cell pellets were resuspended using a tissue homogenizer. To reduce the viscosity of the sample, aliquots of the lysate were sonicated on ice using a microtip attached to a Branson sonicator. The sonicated lysate was centrifuged at 100,000×g for 1 hr at 4° C. and filtered through a 0.2 μm filter unit (Corning).
# The protein was purified using two sequential chromatography steps: Heparin sepharose CL-6B and polyU sepharose 4B (Pharmacia). The chromatography buffers were identical to the lysis buffer but contained no lysozyme, deoxyribonuclease I, MgCl2 or protease inhibitor and the NaCl concentration of the buffer was adjusted according to the requirements for charging the protein onto the column. Each column was eluted with a NaCl gradient which varied in length from 5-50 column volumes depending on the column type. After the final chromatography step, the resulting purity of the enzyme is >90% based on SDS-PAGE analysis. The enzyme was aliquoted and stored at −80° C.
# Standard HCV NS5B RdRp enzyme assay. HCV RdRp genotype 1b assays were run in a final volume of 60 μl in 96 well plates (Corning 3600). The assay buffer is composed of 20 mM Hepes, pH 7.5, 2.5 mM KCl, 2.5 mM MgCl2, 1 mM DTT, 1.6 U RNAse inhibitor (Promega N2515), 0.01 mg/ml BSA (Sigma B6917), and 2% glycerol. All compounds were serially diluted (3-fold) in DMSO and diluted further in water such that the final concentration of DMSO in the assay was 2%. HCV RdRp genotype 1b enzyme was used at a final concentration of 28 nM. A polyA template was used at 6 nM, and a biotinylated oligo-dT12 primer was used at 180 nM final concentration. Template was obtained commercially (Amersham 27-4110). Biotinylated primer was prepared by Sigma Genosys. 3H-UTP was used at 0.6 μCi (0.29 μM total UTP). Reactions were initiated by the addition of enzyme, incubated at 30° C. for 60 min, and stopped by adding 25 μl of 50 mM EDTA containing SPA beads (4 μg/pl, Amersham RPNQ 0007). Plates were read on a Packard Top Count NXT after >1 hr incubation at room temperature.
# Modified HCV NS5B RdRp enzyme assay. A modified enzyme assay was performed essentially as described for the standard enzyme assay except for the following: The biotinylated oligo dT12 primer was precaptured on streptavidin-coated SPA beads by mixing primer and beads in assay buffer and incubating at room temperature for one hour. Unbound primer was removed after centrifugation. The primer-bound beads were resuspended in 20 mM Hepes buffer, pH 7.5 and used in the assay at final concentrations of 20 nM primer and 0.67 μg/μl beads. Order of addition in the assay: enzyme (1.75 nM) was added to diluted compound followed by the addition of a mixture of template (0.36 nM), 3H-UTP (0.6 μCi, 0.29 μM), and primer-bound beads, to initiate the reaction; concentrations given are final. Reactions were allowed to proceed for 4 hours at 30° C.
# IC50 values for compounds were determined using seven different [I]. […]
# [2] = test system: HCV replicon; assay: HCV replicon FRET / luciferase assay; assay type: cell-based; conditions: Hepatitis C virus
# Description: FRET Assay Preparation. The HCV FRET screening assay was performed in 96-well cell culture plates. The FRET peptide (Anaspec, Inc.) (Taliani et al., Anal. Biochem. 1996, 240, 60-67) contains a fluorescence donor, EDANS, near one end of the peptide and an acceptor, DABCYL, near the other end. The fluorescence of the peptide is quenched by […] resonance energy transfer (RET) between the donor and the acceptor, but as the NS3 protease cleaves the peptide the products are released from RET quenching and the fluorescence of the donor becomes apparent. The assay reagent was made as follows: 5× cell Luciferase cell culture lysis reagent from Promega (#E153A) diluted to 1× with dH2O, NaCl added to 150 mM final, the FRET peptide diluted to 20 μM final from a 2 mM stock.
# To prepare plates, HCV replicon cells, with or without a Renilla luciferase reporter gene, were trypsinized and plated in a 96-well plate with titrated test compounds added in columns 3 through 12; columns 1 and 2 contained a control compound (HCV control inhibitor), and the bottom row contained cells with DMSO only. The plates were then placed in a CO2 incubator at 37° C.
# Assays. Subsequent to addition of the test compounds described above (FRET Assay Preparation), at various times the plate was removed and Alamar blue solution (Trek Diagnostics, #00-100) was added to measure cellular toxicity. After reading in a Cytoflour 4000 instrument (PE Biosystems), plates were rinsed with PBS and then used for FRET assay by the addition of 30 ul of the FRET peptide assay reagent described above (FRET Assay Preparation) per well. The plate was then placed into the Cytoflour 4000 instrument which had been set to 340 excite/490 emission, automatic mode for up to 20 cycles and the plate read in a kinetic mode. Typically, the signal to noise using an endpoint analysis after the reads was at least three-fold. Alternatively, after Alamar blue reading, plates were rinsed with PBS, then used for luciferase assay using the Promega Dual-Glo Luciferase Assay System or the Promega EnduRen Live Cell Substrate assay.
# Compound analysis was performed by quantification of the relative HCV replicon inhibition and the relative cytotoxicity values. To calculate cytoxicity values, the average Alamar Blue fluorescence signals from the control wells were set as 100% non-toxic. The individual signals in each of the compound test wells were then divided by the average control signal and multiplied by 100% to determine […]. To calculate the HCV replicon inhibition values, an average background value was obtained from the two wells containing the highest amount of HCV control inhibitor at the end of the assay period. These numbers were similar to those obtained from naive Huh-7 cells. The background numbers were then subtracted from the average signal obtained from the control wells and this number was used as 100% activity. The individual signals in each of the compound test wells were then divided by the averaged control values after background subtraction and multiplied by 100% to determine percent activity. EC50 values were calculated as the concentration which caused a 50% reduction in FRET or luciferase activity. The two numbers generated for the compound plate, percent cytoxicity and percent activity, were used to determine compounds of interest for further analysis.
# [3] = HCV NS5B RdRp genotype 1b, standard or modified enzyme assay not specified, read-out: IC50
# [4] = HCV replicon cells, 50% reduction in FRET or luciferase activity, read-out: EC50
# T1 sequence (Q9WMX2 2420-2992): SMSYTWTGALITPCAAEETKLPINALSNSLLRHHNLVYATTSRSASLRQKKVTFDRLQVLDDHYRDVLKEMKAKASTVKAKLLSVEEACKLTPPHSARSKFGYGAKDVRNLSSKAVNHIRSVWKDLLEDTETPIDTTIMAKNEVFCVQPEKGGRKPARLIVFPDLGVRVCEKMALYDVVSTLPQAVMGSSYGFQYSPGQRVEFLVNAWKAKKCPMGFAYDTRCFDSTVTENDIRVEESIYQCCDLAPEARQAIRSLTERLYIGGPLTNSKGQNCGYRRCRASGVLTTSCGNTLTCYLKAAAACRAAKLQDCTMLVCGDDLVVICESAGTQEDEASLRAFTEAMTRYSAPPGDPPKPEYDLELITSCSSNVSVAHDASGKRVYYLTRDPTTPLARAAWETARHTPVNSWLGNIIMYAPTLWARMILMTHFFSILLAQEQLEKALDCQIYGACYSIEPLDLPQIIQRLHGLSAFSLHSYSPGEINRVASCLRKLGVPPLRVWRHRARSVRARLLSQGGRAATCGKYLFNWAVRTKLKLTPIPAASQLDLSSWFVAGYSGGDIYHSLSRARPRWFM
SMILES,"IC50 [1, 3] [nM]","EC50 [2, 4] [nM]",IC50 [1] [nM],EC50 [2] [nM]
COc1ccc2c(c1)C1CC1(C(=O)O[C@@H]1C[C@@H]3CC[C@@]1(C)C3(C)C)Cn1c-2c(C2CCCCC2)c2ccc(C(=O)NS(=O)(=O)N(C)C)cc21 (stereo partly drawn),3 to 1000,> 1000,,
COc1ccc2c(c1)C1CC1(C(=O)N(C)C1CCN(C)C1)Cn1c-2c(C2CCCCC2)c2ccc(C(=O)NS(=O)(=O)N(C)C)cc21 (stereo not drawn),3 to 1000,3 to 1000,,
COc1ccc2c(c1)C1CC1(C(=O)N(C)C1CCN(C)CC1)Cn1c-2c(C2CCCCC2)c2ccc(C(=O)NS(=O)(=O)N(C)C)cc21 (stereo not drawn),3 to 1000,3 to 1000,,
COc1ccc2c(c1)C1CC1(C(=O)N(C)C(CN(C)C)c1ccccc1)Cn1c-2c(C2CCCCC2)c2ccc(C(=O)NS(=O)(=O)N(C)C)cc21 (stereo not drawn),3 to 1000,3 to 1000,,
COc1ccc2c(c1)C1CC1(C(=O)N1CCCC1CN1CCCC1)Cn1c-2c(C2CCCCC2)c2ccc(C(=O)NS(=O)(=O)N(C)C)cc21 (stereo not drawn),3 to 1000,3 to 1000,,
COc1ccc2c(c1)C1CC1(C(=O)N(C)CCN1CCCC1)Cn1c-2c(C2CCCCC2)c2ccc(C(=O)NS(=O)(=O)N(C)C)cc21 (stereo not drawn),3 to 1000,3 to 1000,,
COc1ccc2c(c1)C1CC1(C(=O)N(C)CC1CCCN1C)Cn1c-2c(C2CCCCC2)c2ccc(C(=O)NS(=O)(=O)N(C)C)cc21 (stereo not drawn),3 to 1000,3 to 1000,,
COc1ccc2c(c1)C1CC1(C(=O)N(C)CC1CCCCN1C)Cn1c-2c(C2CCCCC2)c2ccc(C(=O)NS(=O)(=O)N(C)C)cc21 (stereo not drawn),3 to 1000,3 to 1000,,
COc1ccc2c(c1)C1CC1(C(=O)N(C)[C@@H]1CCCC[C@H]1N(C)C)Cn1c-2c(C2CCCCC2)c2ccc(C(=O)NS(=O)(=O)N(C)C)cc21 (stereo partly drawn),3 to 1000,3 to 1000,,
COc1ccc2c(c1)C1CC1(C(=O)N(C1CC1)[C@@H]1CCCC[C@H]1N(C)C)Cn1c-2c(C2CCCCC2)c2ccc(C(=O)NS(=O)(=O)N(C)C)cc21 (stereo partly drawn),3 to 1000,3 to 1000,,
COc1ccc2c(c1)C1CC1(C(=O)N[C@@H]1CCC[C@H]1N(C)C)Cn1c-2c(C2CCCCC2)c2ccc(C(=O)NS(=O)(=O)N(C)C)cc21 (stereo partly drawn),3 to 1000,3 to 1000,,
COc1ccc2c(c1)C1CC1(C(=O)N(C)CC1(C3CCCCC3)CCCCC1)Cn1c-2c(C2CCCCC2)c2ccc(C(=O)NS(=O)(=O)N(C)C)cc21 (stereo not drawn),3 to 1000,3 to 1000,,
COc1ccc2c(c1)C1CC1(C(=O)N1CCNC(c3ccccc3)C1)Cn1c-2c(C2CCCCC2)c2ccc(C(=O)NS(=O)(=O)N(C)C)cc21 (stereo not drawn),3 to 1000,3 to 1000,,
COc1ccc2c(c1)C1CC1(C(=O)N1CCNC(c3cccc(Cl)c3)C1)Cn1c-2c(C2CCCCC2)c2ccc(C(=O)NS(=O)(=O)N(C)C)cc21 (stereo not drawn),3 to 1000,3 to 1000,,
COc1ccc2c(c1)C1CC1(C(=O)N1CCCN(C(=O)OC(C)(C)C)CC1)Cn1c-2c(C2CCCCC2)c2ccc(C(=O)NS(=O)(=O)C3CC3)cc21 (stereo not drawn),3 to 1000,,,
COc1ccc2c(c1)C1CC1(C(=O)N1CCCN(CCCN3CCOCC3)CC1)Cn1c-2c(C2CCCCC2)c2ccc(C(=O)NS(=O)(=O)C(C)C)cc21 (stereo not drawn),3 to 1000,,,
COc1ccc2c(c1)C=C(C(=O)N1CCCN(CCCN3CCOCC3)CC1)Cn1c-2c(C2CCCCC2)c2ccc(C(=O)NS(=O)(=O)C3CC3)cc21,3 to 1000,,,
COc1ccc2c(c1)C1CC1(C(=O)NC1CC3CCC(C1)N3C)Cn1c-2c(C2CCCCC2)c2ccc(C(=O)NS(=O)(=O)N(C)C)cc21 (stereo not drawn),,,3 to 1000,3 to 1000
COc1ccc2c(c1)C1CC1(C(=O)N[C@@H]1CC3CCN1CC3)Cn1c-2c(C2CCCCC2)c2ccc(C(=O)NS(=O)(=O)N(C)C)cc21 (stereo partly drawn),,,3 to 1000,3 to 1000
COc1ccc2c(c1)C1CC1(C(=O)N(C)C1CC3CCC1N3C)Cn1c-2c(C2CCCCC2)c2ccc(C(=O)NS(=O)(=O)N(C)C)cc21 (stereo not drawn),,,3 to 1000,3 to 1000
COc1ccc2c(c1)C1CC1(C(=O)N1CCN(CC(=O)N3CCCC3)CC1)Cn1c-2c(C2CCCCC2)c2ccc(C(=O)NS(=O)(=O)C(C)C)cc21 (stereo not drawn),3 to 1000,3 to 1000,,
COc1ccc2c(c1)C1CC1(C(=O)N1CCN(Cc3ccccc3)C[C@H]1C)Cn1c-2c(C2CCCCC2)c2ccc(C(=O)NS(C)(=O)=O)cc21 (stereo partly drawn),3 to 1000,3 to 1000,,
COc1ccc2c(c1)C1CC1(C(=O)N1CCN(C(=O)OC(C)(C)C)C[C@H]1c1ccccc1)Cn1c-2c(C2CCCCC2)c2ccc(C(=O)NS(C)(=O)=O)cc21 (stereo partly drawn),3 to 1000,3 to 1000,,
COc1ccc2c(c1)C1CC1(C(=O)N1CCN(C)CC1c1ccccc1)Cn1c-2c(C2CCCCC2)c2ccc(C(=O)NS(=O)(=O)N(C)C)cc21 (stereo not drawn) [drawing 46],3 to 1000,,,
COc1ccc2c(c1)C1CC1(C(=O)N1CCN(C)CC1c1ccccc1)Cn1c-2c(C2CCCCC2)c2ccc(C(=O)NS(=O)(=O)C(C)C)cc21 (stereo not drawn) [drawing 56],3 to 1000,,,
COc1ccc2c(c1)C1CC1(C(=O)N1CCN(C)CC1c1ccccc1)Cn1c-2c(C2CCCCC2)c2ccc(C(=O)NS(=O)(=O)N(C)C)cc21 (stereo not drawn) [drawing 64],3 to 1000,,,
COc1ccc2c(c1)C1CC1(C(=O)N1CCN(C)CC1c1ccccc1)Cn1c-2c(C2CCCCC2)c2ccc(C(=O)NS(=O)(=O)N(C)C)cc21 (stereo not drawn) [drawing 65],3 to 1000,,,
COc1ccc2c(c1)C1C[C@]1(C(=O)N1CCN(C)CC1c1ccccc1)Cn1c-2c(C2CCCCC2)c2ccc(C(=O)NS(=O)(=O)C(C)C)cc21 (stereo partly drawn) [drawing 79],3 to 1000,,,

# — patent US7538102B2, “Compounds for the treatment of Hepatitis C” (Bristol-Myers Squibb Company, priority 2007, dated 2009)
